“And” between values parts separate entries of the source, which are not always exact repeats. Equal values may be shown once.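 Each compound was tested at five concentrations against cells in 96-well plates for 48 hours. GI50 = concentration required for 50% inhibition of growth. At the TGI there is no net growth.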
How the values were obtained:
Experiment in all cases: NCI-60 cell line screen, 48 h
[1] = tested on: SF-268 CNS
[2] = tested on: SK-OV-3 ovarian
[3] = tested on: SK-MEL-28 melanoma
[4] = tested on: KM12 colon
[5] = tested on: OVCAR-3 ovarian
[6] = tested on: TK-10 renal
[7] = tested on: RPMI-8226 leukemia
[8] = tested on: MALME-3M melanoma
[9] = tested on: OVCAR-4 ovarian
[10] = tested on: MCF7 breast

SMILES	GI50 [1]	TGI [1] [µM]	GI50 [2]	TGI [2]	GI50 [3]	TGI [3]	GI50 [4]	TGI [4] [µM]	GI50 [5]	TGI [5] [µM]	GI50 [6]	TGI [6]	GI50 [7]	TGI [7] [µM]	GI50 [8]	TGI [8]	GI50 [9]	TGI [9] [µM]	GI50 [10]	TGI [10] [µM]
Fc1ccc(C2C3CCOc4c(ccc5ccccc45)C3=NN2c2ccccc2)cc1 (stereo not given)	> 77.9 µM	> 100	> 100 µM	> 100 µM	> 88.7 µM	> 100 µM	> 100 µM	> 100	99.6 µM	> 100	> 65 µM	> 100 µM	63.5 µM	> 100	> 38.7 µM	> 100 µM	> 100 µM	> 100	> 85.4 µM	> 100
c1cc2c(c(NC3=NCCN3)c1)CCCC2	–	> 100	–	> 100 µM	–	> 100 µM	–	> 100	–	> 100	–	> 100 µM	–	> 100	–	> 100 µM	–	> 100	–	> 100
O=C(c1ccco1)c1c(C(F)(F)F)n([O-])c2ccc(F)cc2[n+]1=O	1.24 µM	2.85	6.02 µM	18.6 µM	1.46 µM	2.79 µM	0.213 µM	0.568	0.757 µM	2.24	1.42 µM	3.36 µM	0.18 µM	0.573	1.09 µM	3.21 µM	1.35 µM	2.64	0.258 µM	1.89
COc1ccc(/C=C2\CCC(Cc3ccccc3)(CN(C)C)C2=O)cc1 (stereo not given)	–	> 100	–	> 100 µM	–	> 100 µM	–	> 100	–	> 100	–	> 100 µM	–	62.9	–	> 100 µM	–	> 100	–	> 100
FC(F)(F)c1ccc(NCc2nc3ccccc3[nH]2)cc1	40.8 µM	> 100	45.5 µM	> 100 µM	27.9 µM	> 100 µM	29.7 µM	87.7	21.9 µM	62.2	38.2 µM	> 100 µM	20.7 µM	67.8	23.9 µM	69.5 µM	27.1 µM	> 100	21.5 µM	53.2
N=C1C(c2nc3ccccc3s2)=C(O)CN1c1cc(Cl)cc(Cl)c1	32.3 µM	> 100	> 100 µM	> 100 µM	> 100 µM	> 100 µM	> 100 µM	> 100	88.2 µM	> 100	> 100 µM	> 100 µM	> 100 µM	> 100	29.4 µM	> 100 µM	37.4 µM	> 100	> 100 µM	> 100
CS(=O)(=O)N1CCc2c(-c3cnc(N)nc3)nc(N3CCOCC3)nc21	0.821 µM and 1.05 µM	> 51.6	0.128 µM and 0.166 µM	0.692 µM and 1.37 µM	0.646 µM and 0.695 µM	8.18 µM and 13.1 µM	2.1 µM and 2.25 µM	> 100	0.59 µM and 0.641 µM	> 21.4	0.197 µM and 0.221 µM	3.25 µM and 4.09 µM	1.52 µM and 2.5 µM	> 100	0.619 µM and 0.488 µM	> 6.87 µM and 4.87 µM	1.21 µM and 0.945 µM	> 25.7	0.0961 µM and 0.05 µM	> 76.1
COc1cccc(/C=C\c2ccnc3ccccc23)c1	–	> 10	–	> 10 µM	–	> 10 µM	–	> 10	–	> 10	–	> 10 µM	–	> 10	–	> 10 µM	–	> 10	–	> 10
Cn1cc(C2=C(c3c(S(C)=O)n(C)c4ccccc34)C(=O)NC2=O)c2ccccc21 (stereo not given)	11.7 µM	> 25	7.87 µM	> 25 µM	19.1 µM	> 25 µM	7.9 µM	> 25	6.31 µM	17.5	6.26 µM	> 25 µM	12.7 µM	> 25	> 25 µM	> 25 µM	16.1 µM	> 25	6.33 µM	> 25
CC(C)[C@H](C(=O)O[C@@H]1/C=C/C(=O)O[C@@H](C)CCC/C=C/[C@@H]2C[C@H](O)C[C@H]21)N(C)C	5.25 µM	41.9	17.9 µM	> 96.7 µM	5.01 µM	28 µM	3.65 µM	11	8.54 µM	37.8	14.7 µM	60.8 µM	8.12 µM	36.8	6.97 µM	32.1 µM	8.7 µM	> 94.5	6.65 µM	28.1
CCCc1n(Cc2ccc3ccccc3n2)cc[n+]1Cc1ccc2ccccc2n1	2.3 µM	14.2	2.44 µM	9.68 µM	1.52 µM	15.8 µM	0.991 µM	11.9	0.705 µM	10.6	2.84 µM	12.7 µM	0.362 µM	7.41	1.17 µM	7.51 µM	0.445 µM	18.3	1.25 µM	11.9
Cc1cc2c(cc1Cl)N1C(=O)NS(=O)(=O)N=C1NS2(=O)=O	> 100 µM	> 100	> 100 µM	> 100 µM	> 100 µM	> 100 µM	> 100 µM	> 100	> 100 µM	> 100	> 100 µM	> 100 µM	> 100 µM	> 100	> 100 µM	> 100 µM	> 100 µM	> 100	> 100 µM	> 100
COc1cc(/C=C/c2ccccn2)cc(OC)c1OC	–	> 10	–	> 10 µM	–	> 10 µM	–	> 10	–	> 10	–	> 10 µM	–	> 10	–	> 10 µM	–	> 10	–	> 10
Oc1cccc(-c2nc(-c3ccccc3)[nH]c2-c2ccncc2)c1	24.3 µM	> 25	9.29 µM	> 25 µM	2.03 µM	> 18.5 µM	13 µM	> 25	18.6 µM	> 25	16.5 µM	> 25 µM	13.5 µM	> 25	0.719 µM	8.01 µM	10.5 µM	> 25	12.8 µM	> 25
COc1c2ccccc2c(O)c2c(=O)ccn(C)c12	16.5 µM	> 68.9	75.1 µM	> 100 µM	21.2 µM	> 80.1 µM	4.97 µM	38.3	1.86 µM	11	11.3 µM	55.8 µM	5.96 µM	> 100	2.37 µM	5.46 µM	30.3 µM	> 92	3.31 µM	11.3
CC[C@@]1(O)C(=O)NCc2c1cc1n(c2=O)Cc2cc3c(NC(C)=O)cccc3nc2-1	> 100 µM	> 100	> 100 µM	> 100 µM	> 100 µM	> 100 µM	> 100 µM	> 100	> 100 µM	> 100	> 100 µM	> 100 µM	> 30.3 µM	> 100	> 100 µM	> 100 µM	> 100 µM	> 100	> 100 µM	> 100
COc1cc(NC(=O)c2ccccc2Nc2ccnc(C(F)(F)F)c2)cc(OC)c1OC	> 100 µM	> 100	> 100 µM	> 100 µM	> 100 µM	> 100 µM	54.9 µM	> 100	22.4 µM	> 100	72.3 µM	> 100 µM	36.3 µM	> 100	82.2 µM	> 100 µM	30.6 µM	> 100	37.1 µM	> 100
CNCCN(C)Cc1cn[nH]c1-c1ccc(OC2CC(OCCC3CCOCC3)C2)cc1 (stereo not given)	> 100 µM	> 100	> 100 µM	> 100 µM	> 67.9 µM	> 100 µM	> 83.9 µM	> 100	> 80 µM	> 100	> 100 µM	> 100 µM	44.4 µM	> 100	28.4 µM	> 100 µM	> 85 µM	> 100	> 81.2 µM	> 100
OCc1ccc(N(Cc2ccc(F)cc2)CC2CCC2)cc1Cl	17.1 µM	32.1	14.8 µM	27.9 µM	14.8 µM	28.3 µM	14 µM	27.8	5.28 µM	17.5	0.705 µM	3.65 µM	9.28 µM	31.6	16.3 µM	31.8 µM	2.18 µM	14.6	3.25 µM	16.3
O=c1c2cc(O)c(O)cc2oc2cc(O)c(C3OC(CO)C(O)C(O)C3O)c(O)c12 (stereo not given)	–	> 100	–	> 100 µM	–	> 100 µM	–	> 100	–	> 100	–	> 100 µM	–	> 100	–	> 100 µM	–	> 100	–	> 100
N[C@@H](CSSC[C@H](N)C(=O)N1CCn2cc(-c3ccccc3)nc2[C@@H]1CC1CCCCC1)C(=O)N1CCn2cc(-c3ccccc3)nc2[C@@H]1CC1CCCCC1	0.344 µM	2.46	1.59 µM	5.42 µM	0.529 µM	1.96 µM	0.91 µM	2.47	1.41 µM	2.76	2.05 µM	4.45 µM	2.35 µM	5.68	1.5 µM	2.99 µM	2.15 µM	4.8	1.42 µM	2.85
Cc1ccc(S(=O)(=O)CC2(Br)CCc3ccccc3C2=O)cc1 (stereo not given)	–	36.5	–	> 100 µM	–	38.5 µM	–	> 100	–	> 100	–	85.7 µM	–	> 100	–	68.6 µM	–	50	–	85.9

Source: PubChem BioAssay (NCI)
